{"source": "paper PMC10618744", "about": "(Cancer Discovery, 2023)", "target": "PRMT5 (protein arginine methyltransferase 5) (Homo sapiens, UniProt O14744)", "sequence (O14744 2-637)": "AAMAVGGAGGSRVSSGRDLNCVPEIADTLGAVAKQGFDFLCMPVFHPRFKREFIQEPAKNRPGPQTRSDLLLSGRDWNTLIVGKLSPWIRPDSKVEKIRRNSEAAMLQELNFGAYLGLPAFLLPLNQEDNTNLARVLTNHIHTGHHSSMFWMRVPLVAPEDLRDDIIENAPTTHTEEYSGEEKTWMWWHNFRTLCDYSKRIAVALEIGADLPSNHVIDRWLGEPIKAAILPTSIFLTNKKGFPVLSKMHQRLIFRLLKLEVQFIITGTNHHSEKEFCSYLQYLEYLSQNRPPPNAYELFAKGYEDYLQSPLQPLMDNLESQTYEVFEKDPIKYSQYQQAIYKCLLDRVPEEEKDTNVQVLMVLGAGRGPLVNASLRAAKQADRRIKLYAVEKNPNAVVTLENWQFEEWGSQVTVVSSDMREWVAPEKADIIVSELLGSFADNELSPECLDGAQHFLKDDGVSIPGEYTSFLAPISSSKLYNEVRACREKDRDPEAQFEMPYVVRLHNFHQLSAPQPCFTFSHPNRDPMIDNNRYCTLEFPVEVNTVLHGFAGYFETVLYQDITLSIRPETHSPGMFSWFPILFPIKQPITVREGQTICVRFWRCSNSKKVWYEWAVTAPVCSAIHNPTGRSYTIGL", "sequence (Q9BQA1 2-342 partner)": "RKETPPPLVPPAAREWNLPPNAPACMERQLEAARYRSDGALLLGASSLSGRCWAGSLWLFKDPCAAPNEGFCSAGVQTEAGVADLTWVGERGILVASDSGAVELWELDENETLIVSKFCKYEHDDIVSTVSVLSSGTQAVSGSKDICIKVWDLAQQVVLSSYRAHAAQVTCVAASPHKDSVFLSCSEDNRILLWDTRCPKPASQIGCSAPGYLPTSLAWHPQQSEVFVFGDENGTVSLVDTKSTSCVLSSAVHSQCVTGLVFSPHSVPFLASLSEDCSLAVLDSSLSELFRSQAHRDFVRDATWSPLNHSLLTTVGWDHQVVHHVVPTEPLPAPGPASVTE", "assay_type": "biochemical"}
{"compound": "CSC[C@H]1O[C@@H](n2cnc3c(N)ncnc32)[C@H](O)[C@@H]1O", "note": "[MTA]", "values": [{"measurement": "IC50", "result": "~2000", "unit": "nM"}]}
